Measured values published in patent US6465479B1, “Pyridomorphinans and use thereof” (Southern Research Institute, priority 1999, dated 2002).
Several values for one entry are separate records, joined by “and”; a condition that tells them apart may be missing. Equal entries are not always repeated. Entries after “also recorded” stand apart in the source; their conditions may differ. Where two headings read alike, the source gives them in different places.

Legend:
[1] = tested on: mouse vas deferens (MVD); experiment: Opioid agonist activity in electrically stimulated mouse vas deferens (MVD); type: cell-based; conditions: percentage inhibition of contraction at 1 μM
Procedure: The opioid agonist and antagonist potencies were determined on the electrically stimulated mouse vas deferens (MVD) and guinea pig ileum (GPI) smooth muscle preparations.

[2] = tested on: morphine pretreated mice; experiment: Acute morphine physical dependence, precipitated withdrawal (vertical jumps)
[3] = tested on: male ICR mice; experiment: 55° C. warm-water tail-flick test, antinociception; type: in vivo, mouse; conditions: for agonist character in tail-flick, i.c.v.: icv injection
Procedure: (§1) In the following examples, male ICR mice(20-30 grams) were used. […] The solution was brought up to approximately pH 5.5 with 1.74 M NaOH and then the final volume adjusted with distilled water. […] Additional compounds used in these studies were dissolved in distilled water (i.c.v. injections) or physiological saline (i.p. injections).
(§2) Antinociception was assessed using either the 55° C. warm-water tail-flick test or the acetic-acid writhing assay. […] Each mouse was first tested for baseline latency by immersing its tail in the water and recording the time to response. Mice not responding within 5 sec were excluded from further testing. Mice were then administered the test compound and tested for antinociception at 10, 20, 30, 45, 60 and 90 min post-injection. A maximum score was assigned (100%) to animals not responding within 15 sec to avoid tissue damage. Antinociception was calculated by the following formula: % antinociception=100×(test latency-control latency)/(15-control latency). For the acetic acid writhing test, mice were injected i.p. with 0.9% acetic acid. They were then placed in a clear Plexiglas observation jar and the number of abdominal writhes recorded for 15 min (Mogil et al., Heritability of nociception I: responses of 11 inbred mouse strains on 12 measures of nociception. Pain 80:67-82,1999). Percent antinociception was calculated using the formula: % MPE (maximum possible effect)=100−((#writhes individual mouse/mean # writhes control group)×100).

[4] = molecular target: T1, μ receptors (Rattus norvegicus, UniProt P33535); experiment: μ opioid receptor binding, displacement of [3H]DAMGO in rat brain membranes; conditions: displacement of [3H]DAMGO (1.4-3.0 nM), read-out: K1 (nM) ± SEM μ
T1 construct: from tissue; host or cells: rat brain membranes

[5] = tested on: male ICR mice; experiment: Acetic acid writhing assay, antinociception, tolerance and antagonist pretreatment; type: in vivo, mouse; conditions: for Repeated Injections A50 (95% C.I.) i.c.v. / Repeated Injections A50 (95% C.I.) i.p. / Control A50 (95% C.I.) i.p. / Control A50 (95% C.I.) i.c.v.: acetic acid writhing; for Repeated Injections A50 (95% C.I.) i.c.v. / Repeated Injections A50 (95% C.I.) i.p.: after A90 dose ×2 daily, 3 days; for Control A50 (95% C.I.) i.p. / Control A50 (95% C.I.) i.c.v.: control mice
Procedure: as §1, §2
Control mice received a vehicle injection (5 μl distilled water, i.c.v., −24 hr).

[6] = molecular target: T2, kappa (U69,593) (Mus musculus, UniProt P33534); experiment: Antagonism of kappa agonist U69,593 antinociception in the 55° C. tail-flick test; type: in vivo
T2 construct: male ICR mice(20-30 grams) were used; from tissue; host or cells: whole animal (male ICR mice), tail-flick test
Procedure: as §2
(§3) Mice were then injected with A90 doses of selective mu, delta or kappa agonists and antinociception was assessed in the 55° C. tail-flick test.

[7] = molecular target: δ receptors (Rattus norvegicus, UniProt P33533); conditions: read-out: K1 (nM) ± SEM δ; displacement of [3H]DADLE (1.3-2.0 nM), rat brain membranes, 100 nM DAMGO to block μ sites
[8] = molecular target: κ receptors (Cavia porcellus, UniProt P41144); conditions: read-out: K1 (nM) ± SEM K1 (κ); displacement of [3H]U69,593 (1.2-[…]), guinea pig brain membranes
[9] = molecular target: T3, mu (DAMGO) (Mus musculus, UniProt P42866); experiment: Antagonism of mu agonist DAMGO antinociception in the 55° C. tail-flick test; type: in vivo
T3 construct: male ICR mice(20-30 grams) were used; from tissue; host or cells: whole animal (male ICR mice), tail-flick test
Procedure: as §2, §3

[10] = tested on: mice; experiment: Overt signs of toxicity in mice during the antinociceptive studies; conditions: dose ranges tested
[11] = molecular target: T4, delta-1 (DPDPE) (Mus musculus, UniProt P32300); experiment: Antagonism of delta-1 agonist DPDPE antinociception in the 55° C. tail-flick test; type: in vivo
T4 construct: male ICR mice(20-30 grams) were used; from tissue; host or cells: whole animal (male ICR mice), tail-flick test
Procedure: as §2, §3

[12] = tested on: guinea pig ileum (GPI); experiment: Opioid agonist activity in electrically stimulated guinea pig ileum (GPI); type: cell-based
[13] = molecular target: T5, delta-2 ([D-Ala2, Glu4]deltorphin) (Mus musculus, UniProt P32300); experiment: Antagonism of delta-2 agonist [D-Ala2, Glu4]deltorphin antinociception in the 55° C. tail-flick test; type: in vivo
T5 construct: male ICR mice(20-30 grams) were used; from tissue; host or cells: whole animal (male ICR mice), tail-flick test
Procedure: as §2, §3

[14] = tested on: μ opioid receptor (PL-017) in the GPI preparation; conditions: data from published sources; cited from earlier work
[15] = tested on: mouse vas deferens (MVD); conditions: percentage inhibition of contraction at 1 μM; data from published sources; cited from earlier work
[16] = molecular target: T6, δ opioid receptor (DPDPE) in the MVD preparation (Mus musculus, UniProt P32300); conditions: data from published sources; cited from earlier work
T6 construct: electrically stimulated mouse vas deferens (MVD) and guinea pig ileum (GPI) smooth muscle preparations; from tissue; host or cells: mouse vas deferens
T6 sequence (P32300 whole entry): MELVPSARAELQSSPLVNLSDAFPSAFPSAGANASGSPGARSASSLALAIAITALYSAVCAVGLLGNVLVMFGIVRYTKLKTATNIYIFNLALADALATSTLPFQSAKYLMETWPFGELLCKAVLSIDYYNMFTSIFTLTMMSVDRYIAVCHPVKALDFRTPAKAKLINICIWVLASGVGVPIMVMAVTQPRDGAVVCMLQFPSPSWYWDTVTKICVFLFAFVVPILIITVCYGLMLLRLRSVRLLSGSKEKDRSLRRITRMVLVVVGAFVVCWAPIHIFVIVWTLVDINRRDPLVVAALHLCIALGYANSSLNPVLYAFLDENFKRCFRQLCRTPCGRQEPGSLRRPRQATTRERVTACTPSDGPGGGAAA

Sequence of κ receptors (P41144 whole entry): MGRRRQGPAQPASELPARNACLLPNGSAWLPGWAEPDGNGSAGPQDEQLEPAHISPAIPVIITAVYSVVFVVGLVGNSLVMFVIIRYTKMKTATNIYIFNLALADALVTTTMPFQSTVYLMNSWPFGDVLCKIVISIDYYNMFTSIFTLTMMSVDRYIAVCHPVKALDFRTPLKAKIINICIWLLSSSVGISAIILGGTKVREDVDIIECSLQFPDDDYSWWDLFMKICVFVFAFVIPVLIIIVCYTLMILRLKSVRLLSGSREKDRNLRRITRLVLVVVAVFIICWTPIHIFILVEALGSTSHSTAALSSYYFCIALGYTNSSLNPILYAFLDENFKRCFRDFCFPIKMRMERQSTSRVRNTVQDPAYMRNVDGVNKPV
T2 sequence (P33534 whole entry): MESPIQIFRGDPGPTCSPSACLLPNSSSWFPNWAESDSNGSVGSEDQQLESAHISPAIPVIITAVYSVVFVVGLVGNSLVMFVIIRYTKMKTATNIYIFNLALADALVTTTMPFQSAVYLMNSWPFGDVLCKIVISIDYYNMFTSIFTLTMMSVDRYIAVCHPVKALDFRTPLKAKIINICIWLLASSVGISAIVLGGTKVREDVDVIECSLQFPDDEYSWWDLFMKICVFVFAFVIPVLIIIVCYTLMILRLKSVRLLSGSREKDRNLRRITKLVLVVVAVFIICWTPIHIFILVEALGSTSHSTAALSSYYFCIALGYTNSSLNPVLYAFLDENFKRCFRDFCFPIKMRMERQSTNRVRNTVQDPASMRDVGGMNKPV
T4 sequence (P32300 whole entry): as the sequence (P32300 whole entry) above
T5 sequence (P32300 whole entry): as above
T3 sequence (P42866 whole entry): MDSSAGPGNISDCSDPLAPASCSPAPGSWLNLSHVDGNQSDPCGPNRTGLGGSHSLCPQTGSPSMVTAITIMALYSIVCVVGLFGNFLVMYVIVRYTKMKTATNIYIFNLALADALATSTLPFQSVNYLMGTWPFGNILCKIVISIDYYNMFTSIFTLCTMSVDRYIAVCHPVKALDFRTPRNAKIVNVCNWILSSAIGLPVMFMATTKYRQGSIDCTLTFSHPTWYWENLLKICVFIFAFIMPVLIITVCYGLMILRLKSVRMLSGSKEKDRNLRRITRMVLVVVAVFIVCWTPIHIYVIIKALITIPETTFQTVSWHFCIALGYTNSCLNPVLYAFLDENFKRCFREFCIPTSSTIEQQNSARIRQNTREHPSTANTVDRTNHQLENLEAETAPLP
Sequence of δ receptors (P33533 whole entry): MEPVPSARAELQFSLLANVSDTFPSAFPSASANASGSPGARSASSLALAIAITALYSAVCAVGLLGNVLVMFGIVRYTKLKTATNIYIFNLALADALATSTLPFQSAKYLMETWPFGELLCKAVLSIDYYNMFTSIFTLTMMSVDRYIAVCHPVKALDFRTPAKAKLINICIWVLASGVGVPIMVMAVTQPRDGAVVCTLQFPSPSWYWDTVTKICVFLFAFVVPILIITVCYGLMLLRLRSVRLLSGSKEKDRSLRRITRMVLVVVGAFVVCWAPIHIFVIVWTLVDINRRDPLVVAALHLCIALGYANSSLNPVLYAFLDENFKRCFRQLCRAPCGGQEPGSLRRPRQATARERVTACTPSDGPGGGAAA
T1 sequence (P33535 whole entry): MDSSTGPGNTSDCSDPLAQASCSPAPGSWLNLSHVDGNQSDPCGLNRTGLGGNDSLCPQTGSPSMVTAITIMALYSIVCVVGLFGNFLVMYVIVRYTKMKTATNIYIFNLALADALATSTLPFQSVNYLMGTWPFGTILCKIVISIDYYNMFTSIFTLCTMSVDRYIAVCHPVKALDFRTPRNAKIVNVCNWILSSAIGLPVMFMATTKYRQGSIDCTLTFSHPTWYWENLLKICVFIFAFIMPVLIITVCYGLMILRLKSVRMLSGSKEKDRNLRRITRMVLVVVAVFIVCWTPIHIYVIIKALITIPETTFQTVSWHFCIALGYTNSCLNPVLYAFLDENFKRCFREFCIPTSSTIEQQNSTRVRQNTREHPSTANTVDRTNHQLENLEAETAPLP

SMILES: Oc1ccc2c3c1O[C@H]1c4ncc(-c5ccc(Cl)cc5)cc4C[C@@]4(O)[C@@H](C2)N(CC2CC2)CC[C@]314 [Compound 6d, 5′-(4-Chlorophenyl)-17-(Cyclopropylmethyl)-6,7-didehydro-3,14-dihydroxy-4,5α-epoxypyrido[2′3′:6,7]morphinan]
- agonist activity MVD % max resp [1]: 21%
- vertical jumps precipitated in morphine pretreated mice ([2]; 10 mg/kg i.p., 4 hr after morphine 100 mg/kg, vs naloxone 10 mg/kg i.p., p<0.001): significantly less vertical jumps than naloxone injection
- attenuation of naloxone precipitated withdrawal (jumps) ([2]; coadministration 6d 10 mg/kg i.p. + naloxone 10 mg/kg i.p., p<0.05): significantly less jumps than naloxone alone; also recorded: attenuated opioid withdrawal
- % MPE tail flick ([3]; 100 nmol i.c.v., mice): 40.3 % MPE
- A50 tail-flick i.c.v. ([3]; 55° C. tail-flick, mice): greater than 100 nmol
- agonist character in tail-flick, i.c.v. ([3]; 55° C. tail-flick): only partial agonist effects
- antinociceptive effect in tail flick, i.p. ([3]; i.p., doses up to 60 mg/kg): no measurable antinociceptive effect
- Ki [4]: 51 ± 8 nM
- number of writhes ([5]; 30 nmol i.c.v. (A90), vs vehicle, p<0.001): significantly decreased the number of writhes
- Repeated Injections A50 (95% C.I.) i.c.v. [5]: 10.9 nmol (7.2-16.5
- Repeated Injections A50 (95% C.I.) i.p. [5]: 3.85 mg/kg (0.9-16.0
- Control A50 (95% C.I.) i.p. [5]: 4.6 mg/kg (2.5-8.6
- agonist character in acetic acid writhing, i.c.v. ([5]; icv injection): full agonist activity
- blockade of antinociception by delta or kappa antagonist pretreatment ([5]; naltrindole 20 mg/kg i.p. -20 min (p>0.99) or nor-BNI 1 nmol i.c.v. -24 hr (p>0.13), 6d 30 nmol i.c.v.): not by naltrindole (p>0.99) or nor-BNI
- blockade of antinociception by mu antagonist pretreatment ([5]; β-FNA 19 nmol i.c.v. -24 hr, 6d 30 nmol i.c.v., p<0.002): blocked by pre-treatment with β-FNA
- ID50 (mg/kg) against U69,593 ([6]; i.p. pretreatment -20 min, A90 i.c.v. agonist 60 nmol, tail-flick): >60 mg/kg
- effect on antinociception of kappa agonist U69,593, in words ([6]; i.p., doses of up to 60 mg/kg): did not affect
- Ki [7]: 2.2 ± 0.16 nM
- Ki [8]: 20 ± 1.04 nM
- ID50 (mg/kg) against DAMGO ([9]; i.p. pretreatment -20 min, A90 i.c.v. agonist 0.1 nmol): 28.9 mg/kg
- antagonism of mu agonist DAMGO, in words ([9]; i.p., compared with delta-2): much less potent
- overt signs of toxicity [10]: did not display any overt signs of toxicity
- ID50 (mg/kg) against DPDPE ([11]; i.p. pretreatment -20 min, A90 i.c.v. agonist 30 nmol): 15.3 mg/kg
- antagonism of delta-1 agonist DPDPE, in words ([11]; i.p., compared with delta-2): much less potent
- agonist character in the GPI [12]: full agonist
- IC50 ([12]; Cavia porcellus, agonist): 163 nM
- antagonism of delta-2 agonist, in words ([13]; i.p.): potently antagonized
- ID50 (mg/kg) against [D-Ala2, Glu4]deltorphin ([13]; i.p. pretreatment -20 min, A90 i.c.v. agonist 20 nmol): 3.4 mg/kg

SMILES: CN1CC[C@]23c4c5ccc(O)c4O[C@H]2[C@@H](O)C=C[C@H]3[C@H]1C5 [morphine, reference compound]
- A50 tail-flick i.c.v. ([3]; 55° C. tail-flick, mice): 2.94 nmol and 1.7 nmol
- A50 tail-flick i.p. ([3]; 55° C. tail-flick, i.p., mice): 8.0 mg/kg
- agonist character in tail-flick, i.c.v. ([3]; 55° C. tail-flick): full agonist effect
- Repeated Injections A50 (95% C.I.) i.c.v. [5]: 0.05 nmol (0.03-0.08
- Control A50 (95% C.I.) i.c.v. [5]: 0.004 nmol
- Control A50 (95% C.I.) i.c.v. ([5]; listed as Morphine): 0.004 nmol (0.003-0.006
- Repeated Injections A50 (95% C.I.) i.p. [5]: 4.78 mg/kg (3.7-6.2
- Control A50 (95% C.I.) i.p. [5]: 2.2 mg/kg (1.8-2.7

SMILES: Oc1ccc2c3c1O[C@H]1c4[nH]c5ccccc5c4C[C@@]4(O)[C@@H](C2)N(CC2CC2)CC[C@]314 [naltrindole]
- Ki [7]: 0.41 ± 0.09 nM
- Ki [8]: 35.8 ± 4 nM
- antagonist activity PL-017 (μ) Ke [14]: 43 nM
- agonist activity MVD % max resp [15]: 16%
- antagonist activity DPDPE (δ) Ke [16]: 0.49 nM
